# Results reported in US20050176826A1, “Use of asc-1 inhibitors to treat neurological and psychiatric disorders” (H. Lundbeck A/S, priority 2002, published 2005).
# Assays:
# human asc-1 = molecular target: T1, human asc-1 (Homo sapiens, UniProt Q9NS82); assay: [3H]D-serine uptake into HEK293 cells expressing human asc-1; type: cell-based
# T1 construct: expressed in transfected cells; host or cells: HEK293 (ATCC CRL 1573), transient, vector pCI/neo
# T1 sequence (Q9NS82 1-523): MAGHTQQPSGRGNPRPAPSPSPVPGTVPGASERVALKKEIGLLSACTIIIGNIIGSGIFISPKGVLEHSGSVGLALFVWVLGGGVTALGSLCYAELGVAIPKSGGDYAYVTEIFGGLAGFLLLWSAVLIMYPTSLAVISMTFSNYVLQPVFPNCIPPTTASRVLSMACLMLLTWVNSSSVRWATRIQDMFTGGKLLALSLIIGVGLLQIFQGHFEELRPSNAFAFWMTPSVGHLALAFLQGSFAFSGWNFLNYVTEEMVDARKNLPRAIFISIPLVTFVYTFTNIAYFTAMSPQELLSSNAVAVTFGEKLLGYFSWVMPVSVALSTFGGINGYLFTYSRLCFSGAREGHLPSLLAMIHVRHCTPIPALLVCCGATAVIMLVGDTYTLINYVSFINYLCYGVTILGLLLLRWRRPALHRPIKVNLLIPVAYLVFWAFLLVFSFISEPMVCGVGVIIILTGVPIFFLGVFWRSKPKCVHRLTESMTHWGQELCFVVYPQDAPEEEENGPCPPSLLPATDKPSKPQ
# Experimental: Uptake was determined 2-4 days after the transfection.
# Into cortical membranes: Cortex from male Wistar rats (150-200 g) was homogenized in 0.40 M sucrose and centrifuged at 1000×g for 10 min. […] Test compounds and tissue (1 mg orig. tissue/well) were added to 96 well plates and incubated with [^3H]-D-serine (specific activity=26.8 Ci/mmol, PerkinElmer, Cambridge, U.K.) (100 nM final concentration) for 5 min at 25° C. Samples were filtered on Unifilter GF/B glass fiber (Packard Biosciences, Meriden, Conn., USA) and washed with 3×0.25 mL assay buffer. Measurements of [^3H]-D-serine uptake into whole HEK293 cells expressing human asc-1 were performed in 96 well plates with similar conditions except that the cells were incubated for 15 min with radioligand and washed by dipping twice in cold assay buffer following incubation with radioligand. Accumulated radioactivity was extracted from the cells by adding 200 μL scintillation fluid/well (Ultima Gold, Packard Biosciences) and the plates were counted in a Microplates Scintillation Counter (Packard Biosciences). The D-serine uptake in samples containing test compounds was compared to controls without added compound or controls where transport via the asc-1 was inhibited by addition of e.g. 30 mM L-alanine.
# [1] = molecular target: T2, D-serine uptake in rat cerebellar synaptosomes (Rattus norvegicus, UniProt P63116); assay: [3H]D-serine uptake in rat cerebellar synaptosomes; type: biochemical
# T2 construct: from tissue; host or cells: rat cerebellar synaptosomes
# T2 sequence (P63116 1-530): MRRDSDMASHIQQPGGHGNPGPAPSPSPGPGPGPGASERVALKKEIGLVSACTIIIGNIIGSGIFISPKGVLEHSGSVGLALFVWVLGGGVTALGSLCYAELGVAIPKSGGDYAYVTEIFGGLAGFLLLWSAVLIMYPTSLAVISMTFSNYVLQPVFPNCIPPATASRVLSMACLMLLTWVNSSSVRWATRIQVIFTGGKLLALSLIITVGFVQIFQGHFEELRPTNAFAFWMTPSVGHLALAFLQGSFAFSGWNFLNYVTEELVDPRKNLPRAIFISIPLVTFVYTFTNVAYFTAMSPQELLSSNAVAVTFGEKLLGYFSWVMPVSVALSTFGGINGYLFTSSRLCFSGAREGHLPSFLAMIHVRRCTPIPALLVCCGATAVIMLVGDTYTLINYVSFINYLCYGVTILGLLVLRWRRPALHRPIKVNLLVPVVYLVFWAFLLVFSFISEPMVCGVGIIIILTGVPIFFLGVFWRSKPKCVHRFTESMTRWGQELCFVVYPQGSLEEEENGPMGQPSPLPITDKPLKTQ
# T2 sequence (Q794F9 1-527 partner): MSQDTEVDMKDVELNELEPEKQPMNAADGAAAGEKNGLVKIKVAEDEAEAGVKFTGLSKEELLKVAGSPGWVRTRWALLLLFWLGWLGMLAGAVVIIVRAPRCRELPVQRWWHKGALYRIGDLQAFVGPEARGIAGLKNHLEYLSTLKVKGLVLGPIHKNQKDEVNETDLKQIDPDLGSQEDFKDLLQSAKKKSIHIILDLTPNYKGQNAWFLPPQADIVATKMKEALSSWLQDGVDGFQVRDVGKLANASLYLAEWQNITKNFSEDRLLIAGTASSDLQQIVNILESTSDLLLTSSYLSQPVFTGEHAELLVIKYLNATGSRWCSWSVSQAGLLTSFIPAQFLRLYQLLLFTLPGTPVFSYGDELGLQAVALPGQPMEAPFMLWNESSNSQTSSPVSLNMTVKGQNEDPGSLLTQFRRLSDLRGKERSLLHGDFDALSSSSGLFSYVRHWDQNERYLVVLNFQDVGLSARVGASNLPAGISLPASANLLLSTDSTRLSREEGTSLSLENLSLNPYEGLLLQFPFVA
# System A transporters = assay: [3H]AIB transport into cultured rat hepatocytes (Bracy et al.); type: cell-based; conditions: corresponding to 81% inhibition at 5 mM
# [2] = molecular target: noradrenaline (NA) uptake (Rattus norvegicus, UniProt Q63380); assay: [3H]noradrenalin uptake into rat cortical synaptosomes; type: biochemical; conditions: read-out: Ki, block of noradrenaline transport
# noradrenaline (NA) uptake, sequence (Q63380 1-617): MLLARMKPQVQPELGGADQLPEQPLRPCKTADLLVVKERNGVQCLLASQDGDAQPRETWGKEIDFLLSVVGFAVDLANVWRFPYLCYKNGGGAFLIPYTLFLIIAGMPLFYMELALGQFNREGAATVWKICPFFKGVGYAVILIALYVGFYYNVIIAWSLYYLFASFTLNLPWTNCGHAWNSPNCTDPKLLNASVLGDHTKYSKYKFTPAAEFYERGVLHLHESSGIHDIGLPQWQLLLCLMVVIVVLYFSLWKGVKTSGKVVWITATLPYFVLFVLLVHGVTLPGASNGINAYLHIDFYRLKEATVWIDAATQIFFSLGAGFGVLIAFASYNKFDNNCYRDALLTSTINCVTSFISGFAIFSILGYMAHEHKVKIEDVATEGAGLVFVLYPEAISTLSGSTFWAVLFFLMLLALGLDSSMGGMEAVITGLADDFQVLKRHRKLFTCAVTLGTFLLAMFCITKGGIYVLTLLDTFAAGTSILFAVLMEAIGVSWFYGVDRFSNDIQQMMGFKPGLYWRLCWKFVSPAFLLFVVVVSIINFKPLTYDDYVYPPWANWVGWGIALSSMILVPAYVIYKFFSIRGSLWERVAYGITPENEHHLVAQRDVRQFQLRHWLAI
# Experimental: Inhibition of serotonin (5-HT), dopamine (DA) and noradrenaline (NA) uptake in vitro was measured in rat brain synaptosomes using a modification of a previously described protocol (Bøgesø et al., J Med Chem 1985, 28, 1817-1828). In brief, tritium labelled amines were used to measure uptake into synaptosomes from whole rat brain (excluding cerebellum) ([^3H]serotonin), rat striatal synaptosomes ([^3H]dopamine) or into rat cortical synaptosomes [^3H]noradrenalin. The dissected rat brain regions were homogenized in 0.40 M sucrose supplemented with 1 mM nialamid and centrifuged at 1000×g for 10 min. The supernatants were further centrifuged for 30 min at 20.000×g, 4° C. and resuspended in Krebs-Ringer buffer, pH 7.4 supplemented with 0.2 g/l ascorbic acid. Test compounds and membranes were added in 96 well plates and the incubation was started by adding either 10 nM [^3H]serotonin, 12.5 nM [^3H]dopamine or 10 nM [^3H]noradrenalin for 15 min at 37° C. except for [^3 H]dopamine uptake (5 min at 20° C.). Non-specific uptake was defined as uptake in the presence of 10 μM citalopram, 100 μM benttropin or 20 μM talsupram, respectively and accounted for 5-10% of total uptake. Samples were filtered over Whatman GF/C filters and the IC50's were estimated using non-linear regression analysis from at least 8 points dose-response curves with triplicate determinations.
smiles,measurement,setting,value
CSCC(N)C(=O)O (stereo in doubt) [(S)-methyl-L-cysteine],Ki,human asc-1,62 ± 15 µM
same,inhibition of D-serine uptake in rat cerebellar synaptosomes (in words),[1],potent and selective inhibitor
same,IC50,System A transporters,~1200 µM
same,Ki,[2],> 1000 µM
